Laboratory results as given in patent US20260201008A1, “SECRETIN-DERIVED GLP1R SELECTIVE AGONISTS” (GUBRA A/S, priority 2023, published 2026).
Read-outs that look alike come from different tables or passages of the source. Numbered stars: 1 amine (or outer) side, 2 acyl side, 3 side chain; on linkers, the order of the positions; unused ones are H or OH. Square brackets hold non-standard residues; d marks the D form. Side chains are listed from the residue outwards. Peptide text beside a SMILES is read from it. * marks the point of attachment. C20 diacid = O=C(O)CCCCCCCCCCCCCCCCCCC(=O)*; γGlu = O=C(O)[C@H](CCC(=O)[*:2])N[*:1]; AEEA = NCCOCCOCC(=O)O; Aib = CC(C)(N)C(=O)O

What was measured:
[1] = Turbidity of crude library peptides (absorbance at 600 nm); assay type: physicochemical; details: Physical stability of peptides
Procedure, shortened: (§1)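 Values reflect mean ThT emission (ex 450, em 480 nm) over 72 h at 40° C, read every 10 min after 5 min shaking at 700 rpm, plus a single initial absorbance at 600 nm for turbidity. Peptides were at 267 μM, pH 4.0 acetate or pH 7.0 phosphate (50 mM), with 4 μM ThT.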

[2] = Fibril formation of crude library peptides (Thioflavin T); assay type: physicochemical; design: key: average ThT fluorescence emission at 480 nm (ex 450 nm), raw units; details: Physical stability of peptides
Procedure, shortened: as §1

GLP1R = GLP1R (Homo sapiens, UniProt P43220); test: hGLP1R potency, cAMP accumulation in CHO-K1 cells stably overexpressing hGLP1R; assay type: cell-based; design: host or cells: CHO-K1; details: for Selectivity: SCTR EC50/GLP1R EC50 ratio; for SCTR EC50/GLP1R EC50 ratio: cAMP accumulation in CHO-K1 cells
Procedure, shortened: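 Potency reflects cAMP accumulation measured by time-resolved fluorescence energy transfer after a 30 min room-temperature stimulation in IBMX-containing (0.5 mM) DPBS with casein. Purified peptides were tested in duplicate over eleven threefold dilutions, and EC50 was obtained from sigmoid concentration-response fitting.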

SCTR = SCTR (Homo sapiens, UniProt P47872); test: hSCTR potency, cAMP accumulation in CHO-K1 cells stably overexpressing hSCTR; assay type: cell-based; design: alternatively Euroscreen ES-712-AF; FAST-0161L; host or cells: CHO-K1
Procedure, shortened: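 Potency reflects cAMP accumulation after 30 min agonist exposure at room temperature in hSCTR-expressing CHO-K1 cells, with 0.5 mM IBMX present to block phosphodiesterase. EC50 was derived by nonlinear regression.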

[3] = selectivity for hGLP1R over hSCTR
[4] = cAMP accumulation, CHO-K1 cells overexpressing hGLP1R, read-out: hGLP1R pEC50 (converted)
[5] = cAMP accumulation, CHO-K1 cells overexpressing hSCTR, read-out: hSCTR pEC50 (converted)

Sequence of GLP1R (P43220 24-463): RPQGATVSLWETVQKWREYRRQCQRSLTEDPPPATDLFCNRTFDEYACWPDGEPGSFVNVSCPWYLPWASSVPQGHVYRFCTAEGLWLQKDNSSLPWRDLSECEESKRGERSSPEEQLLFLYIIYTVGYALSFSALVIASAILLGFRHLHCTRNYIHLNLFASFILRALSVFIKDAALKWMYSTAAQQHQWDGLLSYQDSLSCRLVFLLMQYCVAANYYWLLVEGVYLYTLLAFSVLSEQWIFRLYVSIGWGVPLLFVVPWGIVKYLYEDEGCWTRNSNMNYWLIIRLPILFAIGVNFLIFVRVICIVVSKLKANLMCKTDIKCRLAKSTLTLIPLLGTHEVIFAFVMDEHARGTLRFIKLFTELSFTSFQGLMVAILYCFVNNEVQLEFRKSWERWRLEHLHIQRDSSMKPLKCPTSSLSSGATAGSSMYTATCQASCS
Sequence of SCTR (P47872 23-440): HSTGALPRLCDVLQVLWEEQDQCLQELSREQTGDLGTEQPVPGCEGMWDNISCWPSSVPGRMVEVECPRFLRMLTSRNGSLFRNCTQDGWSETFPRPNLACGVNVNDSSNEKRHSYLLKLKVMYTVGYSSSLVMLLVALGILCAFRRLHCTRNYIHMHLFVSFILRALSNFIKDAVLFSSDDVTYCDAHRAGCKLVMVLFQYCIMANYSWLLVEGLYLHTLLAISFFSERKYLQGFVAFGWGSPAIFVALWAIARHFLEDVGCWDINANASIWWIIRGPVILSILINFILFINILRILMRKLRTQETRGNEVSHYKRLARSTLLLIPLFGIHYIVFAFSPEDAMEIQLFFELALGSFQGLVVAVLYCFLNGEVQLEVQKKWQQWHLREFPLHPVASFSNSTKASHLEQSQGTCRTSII

In the case of CC(C)C[C@H](NC(=O)[C@H](CCC(=O)O)NC(=O)[C@H](CCCCNC(=O)COCCOCCNC(=O)COCCOCCNC(=O)CC[C@H](NC(=O)CCCCCCCCCCCCCCCCCCC(=O)O)C(=O)O)NC(=O)[C@H](CC(C)C)NC(=O)[C@@H](NC(=O)[C@H](CO)NC(=O)[C@@H](NC(=O)[C@H](CC(=O)O)NC(=O)[C@H](CO)NC(=O)[C@@H](NC(=O)[C@H](Cc1ccccc1)NC(=O)[C@@H](NC(=O)CNC(=O)[C@H](CCC(=O)O)NC(=O)C(C)(C)NC(=O)[C@@H](N)Cc1c[nH]cn1)[C@@H](C)O)[C@@H](C)O)C(C)C)[C@@H](C)O)C(=O)N[C@@H](C)C(=O)N[C@@H](C)C(=O)N[C@@H](C)C(=O)N[C@@H](CCC(N)=O)C(=O)N[C@@H](CCCNC(=N)N)C(=O)N[C@@H](Cc1ccccc1)C(=O)N[C@@H](CC(C)C)C(=O)N[C@@H](CCC(=O)O)C(=O)N[C@@H](Cc1c[nH]cn1)C(=O)N[C@@H](CC(C)C)C(=O)N[C@H](C(N)=O)C(C)C [compound 11] (H-H[Aib]EGTFTSDVSTLK([AEEA-AEEA-γGlu-C20 diacid])ELAAAQRFLEHLV-NH2), the “Turbidity (pH 7)” value [1] is reported as 0.08, the Fibril formation [2] is reported as 7854 and the EC50 (GLP1R) is reported as 0.0501 nM. For the same molecule, the Selectivity (GLP1R) was 11347 and the EC50 (SCTR) was 631 nM.

For CC(C)C[C@H](NC(=O)[C@H](Cc1ccccc1)NC(=O)[C@H](CCCNC(=N)N)NC(=O)[C@H](CCC(N)=O)NC(=O)[C@H](CCC(=O)O)NC(=O)[C@H](C)NC(=O)[C@H](C)NC(=O)[C@H](CCC(=O)O)NC(=O)[C@H](CCC(=O)O)NC(=O)[C@H](CCCCNC(=O)COCCOCCNC(=O)COCCOCCNC(=O)CC[C@H](NC(=O)CCCCCCCCCCCCCCCCCCC(=O)O)C(=O)O)NC(=O)[C@H](CC(C)C)NC(=O)[C@H](CCCNC(=N)N)NC(=O)[C@H](CO)NC(=O)[C@@H](NC(=O)[C@H](CC(=O)O)NC(=O)[C@H](CO)NC(=O)[C@@H](NC(=O)[C@H](Cc1ccccc1)NC(=O)[C@@H](NC(=O)CNC(=O)[C@H](CCC(=O)O)NC(=O)C(C)(C)NC(=O)[C@@H](N)Cc1c[nH]cn1)[C@@H](C)O)[C@@H](C)O)C(C)C)C(=O)N[C@@H](CCC(=O)O)C(=O)N[C@@H](Cc1c[nH]cn1)C(=O)N[C@@H](CC(C)C)C(=O)N[C@H](C(N)=O)C(C)C [compound 22] (H-H[Aib]EGTFTSDVSRLK([AEEA-AEEA-γGlu-C20 diacid])EEAAEQRFLEHLV-NH2), the “Turbidity (pH 7)” value [1] was 0.08, the Fibril formation [2] was 16453 and the Selectivity (GLP1R) was 20678. For the same molecule, the EC50 (GLP1R; cAMP accumulation, CHO-K1 cells overexpressing hGLP1R, read-out: pEC50 hGLPR1 (converted)) was 0.02 nM and the EC50 (SCTR; cAMP accumulation, CHO-K1 cells overexpressing hSCTR, read-out: pEC50 hSCTR (converted)) was 398 nM.

For CC(C)C[C@H](NC(=O)[C@H](Cc1ccccc1)NC(=O)[C@H](CCCNC(=N)N)NC(=O)[C@H](CCC(N)=O)NC(=O)[C@@H](NC(=O)[C@H](C)NC(=O)[C@H](C)NC(=O)[C@@H](NC(=O)[C@H](CCC(=O)O)NC(=O)[C@H](CCCCNC(=O)COCCOCCNC(=O)COCCOCCNC(=O)CC[C@H](NC(=O)CCCCCCCCCCCCCCCCCCC(=O)O)C(=O)O)NC(=O)[C@H](CC(C)C)NC(=O)[C@@H](NC(=O)[C@H](CO)NC(=O)[C@@H](NC(=O)[C@H](CC(=O)O)NC(=O)[C@H](CO)NC(=O)[C@@H](NC(=O)[C@H](Cc1ccccc1)NC(=O)[C@@H](NC(=O)CNC(=O)[C@H](CCC(=O)O)NC(=O)C(C)(C)NC(=O)[C@@H](N)Cc1c[nH]cn1)[C@@H](C)O)[C@@H](C)O)C(C)C)[C@@H](C)O)[C@@H](C)O)[C@@H](C)O)C(=O)N[C@@H](CCC(=O)O)C(=O)N[C@@H](Cc1c[nH]cn1)C(=O)N[C@@H](CC(C)C)C(=O)N[C@H](C(N)=O)C(C)C [compound 93] (H-H[Aib]EGTFTSDVSTLK([AEEA-AEEA-γGlu-C20 diacid])ETAATQRFLEHLV-NH2), the “Turbidity (pH 7)” value [1] was 0.08, the Fibril formation [2] was 6728 and the EC50 (GLP1R) was 0.01 nM. The “SCTR EC50/GLP1R EC50 ratio” value (GLP1R; [3]) was 36771 and the EC50 (SCTR) was 316 nM.

For CC[C@H](C)[C@H](NC(=O)[C@H](Cc1ccccc1)NC(=O)[C@H](CCCNC(=N)N)NC(=O)[C@H](CCC(N)=O)NC(=O)[C@H](CC(C)C)NC(=O)[C@H](C)NC(=O)[C@H](C)NC(=O)CNC(=O)[C@H](CCC(=O)O)NC(=O)[C@H](CC(C)C)NC(=O)[C@H](CC(C)C)NC(=O)C(C)(C)NC(=O)[C@H](CO)NC(=O)[C@@H](NC(=O)[C@H](CC(=O)O)NC(=O)[C@H](CO)NC(=O)[C@@H](NC(=O)[C@H](Cc1ccccc1)NC(=O)[C@@H](NC(=O)CNC(=O)[C@H](CCC(=O)O)NC(=O)C(C)(C)NC(=O)[C@@H](N)Cc1c[nH]cn1)[C@@H](C)O)[C@@H](C)O)C(C)C)C(=O)N[C@@H](CCC(N)=O)C(=O)N[C@@H](Cc1c[nH]c2ccccc12)C(=O)N[C@@H](CC(C)C)C(=O)N[C@H](C(N)=O)C(C)C [compound 179] (H-H[Aib]EGTFTSDVS[Aib]LLEGAALQRFIQWLV-NH2), the “Turbidity (pH 7)” value [1] was 0.55, the Fibril formation [2] was 22028 and the EC50 (GLP1R; [4]) was 0.0794 nM. The “SCTR EC50/GLP1R EC50 ratio” value (GLP1R; [3]) was 5995 and the EC50 (SCTR; [5]) was 501 nM.

In the case of CC(C)C[C@H](NC(=O)[C@H](Cc1ccccc1)NC(=O)[C@H](CCCNC(=N)N)NC(=O)[C@H](CCC(N)=O)NC(=O)[C@H](CC(C)C)NC(=O)C(C)(C)NC(=O)[C@H](C)NC(=O)[C@H](CCC(=O)O)NC(=O)[C@H](CCC(=O)O)NC(=O)[C@H](CCCCNC(=O)COCCOCCNC(=O)COCCOCCNC(=O)CC[C@H](NC(=O)CCCCCCCCCCCCCCCCCCC(=O)O)C(=O)O)NC(=O)[C@H](CC(C)C)NC(=O)[C@H](Cc1ccc(O)cc1)NC(=O)[C@H](CO)NC(=O)[C@@H](NC(=O)[C@H](CC(=O)O)NC(=O)[C@H](CO)NC(=O)[C@@H](NC(=O)[C@H](Cc1ccccc1)NC(=O)[C@@H](NC(=O)CNC(=O)[C@H](CCC(=O)O)NC(=O)CNC(=O)[C@@H](N)Cc1c[nH]cn1)[C@@H](C)O)[C@@H](C)O)C(C)C)C(=O)N[C@@H](CCC(=O)O)C(=O)N[C@@H](Cc1c[nH]cn1)C(=O)N[C@@H](CC(C)C)C(=O)N[C@H](C(N)=O)C(C)C [compound 142] (H-HGEGTFTSDVSYLK([AEEA-AEEA-γGlu-C20 diacid])EEA[Aib]LQRFLEHLV-NH2), the “Turbidity (pH 7)” value [1] is reported as 0.08, the Fibril formation [2] is reported as 3679 and the EC50 (GLP1R; [4]) is reported as 0.0126 nM. The “SCTR EC50/GLP1R EC50 ratio” value (GLP1R; [3]) was 1484910 and the EC50 (SCTR; [5]) was 20000 nM.

With CC(C)C[C@H](NC(=O)[C@H](Cc1ccccc1)NC(=O)[C@H](CCCNC(=N)N)NC(=O)[C@H](CCC(N)=O)NC(=O)[C@H](CC(C)C)NC(=O)C(C)(C)NC(=O)[C@H](C)NC(=O)[C@H](CCC(=O)O)NC(=O)[C@H](CCC(=O)O)NC(=O)[C@H](CCCCNC(=O)COCCOCCNC(=O)COCCOCCNC(=O)CC[C@H](NC(=O)CCCCCCCCCCCCCCCCCCC(=O)O)C(=O)O)NC(=O)[C@H](CC(C)C)NC(=O)[C@H](Cc1ccc(O)cc1)NC(=O)[C@H](CO)NC(=O)[C@@H](NC(=O)[C@H](CC(=O)O)NC(=O)[C@H](CO)NC(=O)[C@@H](NC(=O)[C@H](Cc1ccccc1)NC(=O)[C@@H](NC(=O)CNC(=O)[C@H](CCC(=O)O)NC(=O)C(C)(C)NC(=O)[C@@H](N)Cc1c[nH]cn1)[C@@H](C)O)[C@@H](C)O)C(C)C)C(=O)N[C@@H](CCC(=O)O)C(=O)N[C@@H](Cc1c[nH]c2ccccc12)C(=O)N[C@@H](CC(C)C)C(=O)N[C@H](C(N)=O)C(C)C [compound 169] (H-H[Aib]EGTFTSDVSYLK([AEEA-AEEA-γGlu-C20 diacid])EEA[Aib]LQRFLEWLV-NH2) the “Turbidity (pH 7)” value [1] was 0.08, the Fibril formation [2] was 3552 and the EC50 (GLP1R; [4]) was 0.0398 nM. The “SCTR EC50/GLP1R EC50 ratio” value (GLP1R; [3]) was 14974 and the EC50 (SCTR; [5]) was 501 nM.

For CC(C)C[C@H](NC(=O)[C@H](Cc1ccc(O)cc1)NC(=O)[C@H](CO)NC(=O)[C@H](Cc1ccc(O)cc1)NC(=O)[C@H](CC(=O)O)NC(=O)[C@H](CO)NC(=O)[C@@H](NC(=O)[C@H](Cc1ccccc1)NC(=O)[C@@H](NC(=O)CNC(=O)[C@H](CCC(=O)O)NC(=O)C(C)(C)NC(=O)[C@@H](N)Cc1c[nH]cn1)[C@@H](C)O)[C@@H](C)O)C(=O)N[C@@H](CCCCNC(=O)COCCOCCNC(=O)COCCOCCNC(=O)CC[C@H](NC(=O)CCCCCCCCCCCCCCCCCCC(=O)O)C(=O)O)C(=O)N[C@@H](CCC(=O)O)C(=O)N[C@@H](CCC(=O)O)C(=O)N[C@@H](C)C(=O)NC(C)(C)C(=O)N[C@@H](CC(C)C)C(=O)N[C@@H](CCC(N)=O)C(=O)N[C@@H](CCCNC(=N)N)C(=O)N[C@@H](Cc1ccccc1)C(=O)N[C@@H](CC(C)C)C(=O)N[C@@H](CCC(=O)O)C(=O)N[C@@H](Cc1c[nH]cn1)C(=O)N[C@@H](CC(C)C)C(=O)N[C@H](C(N)=O)C(C)C [compound 196] (H-H[Aib]EGTFTSDYSYLK([AEEA-AEEA-γGlu-C20 diacid])EEA[Aib]LQRFLEHLV-NH2), the “Turbidity (pH 7)” value [1] was 0.08, the Fibril formation [2] was 5187 and the EC50 (GLP1R; cAMP accumulation, CHO-K1 cells stably overexpressing hGLP1R, read-out: hGLP1R potency (pEC50) (converted)) was 0.0126 nM. For the same molecule, the “SCTR EC50/GLP1R EC50 ratio” value (GLP1R; selectivity ratio, hSCTR vs hGLP1R) was 1743 and the EC50 (SCTR; cAMP accumulation, CHO-K1 cells stably overexpressing hSCTR, read-out: hSCTR potency (pEC50) (converted)) was 20 nM.
